These compounds were tested against T1, Corticotropin-releasing factor-binding protein (Homo sapiens, UniProt P24387) (assay: activators of CRF receptor 2 with binding protein – uHTS hits, confirmation (AID 602473)).
T1 sequence (P24387 whole entry): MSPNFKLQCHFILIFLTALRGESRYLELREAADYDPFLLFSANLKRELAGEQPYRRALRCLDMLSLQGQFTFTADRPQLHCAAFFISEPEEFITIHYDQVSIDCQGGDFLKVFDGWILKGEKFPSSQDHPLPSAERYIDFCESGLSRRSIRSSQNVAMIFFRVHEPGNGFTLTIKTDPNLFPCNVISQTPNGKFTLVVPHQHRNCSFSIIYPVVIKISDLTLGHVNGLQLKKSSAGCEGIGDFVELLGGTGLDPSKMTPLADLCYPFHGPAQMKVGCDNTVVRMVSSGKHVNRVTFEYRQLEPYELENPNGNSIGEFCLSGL

| Compound | EC50 |
| --- | --- |
| CN(CCOc1ccc(Cc2sc(=O)[nH]c2O)cc1)c1ccccn1 | > 53 µM |
| Cc1c(N=C2C(=O)N(c3ccccc3Cl)C(=O)C2Cl)c(=O)n(-c2ccccc2)n1C (configuration not stated) | > 53 µM |
| Cc1cc2c(cc1C)NC(c1c(C)n(C)n(-c3ccccc3)c1=O)C1C(=O)CC(C)(C)CC1=N2 (configuration not stated) | > 53 µM |
| N#CC1C(=N)OC2=C(C(=O)CC(c3ccccc3)C2)C1c1ccc2c(c1)OCO2 (configuration not stated) | > 53 µM |
| Clc1ccc(C2=Nc3ncnn3C(c3ccco3)C2)cc1 (configuration not stated) | 8.29 µM |
| COc1cccc(C(=O)Cc2nc3ccc(C(=O)NCCc4ccc(Cl)cc4)cc3[nH]c2=O)c1 | 5.02 µM |
| Cc1ccc(-n2c(O)c3n(-c4ccccc4)[nH]c(C(=O)c4ccccc4)c-3c2=O)cc1 | 22.2 µM |
| COc1ccccc1-n1c(O)c2n(-c3ccc(C)cc3)[nH]c(C(=O)c3ccccc3)c-2c1=O | 5.27 µM |
| N#CC(C(=O)COc1ccc(Cl)cc1)c1nc2ccccc2s1 (configuration not stated) | > 53 µM |
| CCOc1ccc(C2CC(c3ccc(C)cc3)=Nc3nnnn32)cc1 (configuration not stated) | > 53 µM |
| Cc1ccccc1COc1ccc(C(=O)C2C(=O)C(=O)N(CCCn3ccnc3)C2c2ccco2)cc1 (configuration not stated) | > 53 µM |
| COc1cc(C2c3c(-c4ccccn4)n[nH]c3OC(=N)C2C#N)cc(OC)c1OC (configuration not stated) | > 53 µM |
| O=C(Cc1sc(N=NC=CCc2ccccc2)nc1O)Nc1ccc(Cl)c(Cl)c1 | > 53 µM |
| CN1C(=O)C(=CCC=Nc2ccccc2)C(=O)N(C)C1=O | > 53 µM |
| CC1(C)CC(=O)C2CNc3ccccc3N=C2C1 (configuration not stated) | > 53 µM |
| COC(=O)C1=C(C)NC(=O)C1=CNc1ccc(Oc2ccccc2)cc1 | > 53 µM |
| O=C(O)c1ccc(CN=Nc2cccc(C(F)(F)F)c2)cc1 | > 53 µM |
| CCOc1ccc(C2=Nc3ncnn3C(c3ccccc3)C2)cc1 (configuration not stated) | > 53 µM |
| COc1cc2c(cc1OC)C(CC(=O)c1ccc(OC)c([N+](=O)[O-])c1)=NCC2 | > 53 µM |

| Compound | EC50 |
| --- | --- |
| COc1ccc(-n2c(O)cc(-c3ccc([N+](=O)[O-])cc3)c2O)cc1 | > 53 µM |
| Cc1ccc(-n2c(O)cc(=O)[nH]c2=O)c(C)c1 | > 53 µM |
| CCCCCCC1=Cc2c/c(=C(/N)NNC(=O)c3ccncc3)c(=O)oc2=CC1=O | 1.11 µM |
| Cc1ccc2nc(N3C(=O)C(=O)C(C(=O)c4ccco4)C3c3cccc(O)c3)sc2c1 (configuration not stated) | > 53 µM |
| COc1cc(/C=C2\CCC(C)C3=C(c4cc(OC)c(OC)c(OC)c4)C(C#N)C(=N)OC32)cc(OC)c1OC (configuration not stated) | > 53 µM |
| CC1=CC(C)(C(Cl)(Cl)Cl)C(C)C=C1N=O (configuration not stated) | > 53 µM |
| CCNC(=S)N(CCc1ccc(S(N)(=O)=O)cc1)c1cc(O)n(-c2ccccc2)c1O [1-(2,5-dioxo-1-phenyl-3-pyrrolidinyl)-3-ethyl-1-[2-(4-sulfamoylphenyl)ethyl]thiourea] | 18.5 µM |
| Cc1ccc(C2CC(c3ccccc3)=Nc3nc(-n4c(O)ccc4O)nn32)cc1 (configuration not stated) [1-[7-(4-methylphenyl)-5-phenyl-1,7-dihydro-[1,2,4]triazolo[1,5-a]pyrimidin-2-yl]pyrrolidine-2,5-dione] | > 53 µM |
| CCOc1ccc(C2C(C#N)=C3Sc4ccccc4N3C(=N)C2C#N)cc1 (configuration not stated) [1-amino-3-(4-ethoxyphenyl)-3H-pyrido[2,1-b][1,3]benzothiazole-2,4-dicarbonitrile] | 8.06 µM |
| Oc1ccc(CN=Nc2nc(N3CCCCCC3)nc(N3CCCCCC3)n2)c(O)c1 [2,4-dihydroxybenzaldehyde (4,6-diazepan-1-yl-1,3,5-triazin-2-yl)hydrazone] | > 53 µM |
| COc1cc(C2C(C(=O)c3ccco3)C(=O)C(=O)N2c2cc(C)on2)cc(Br)c1O (configuration not stated) [2-(3-bromanyl-5-methoxy-4-oxidanyl-phenyl)-3-(furan-2-ylcarbonyl)-1-(5-methyl-1,2-oxazol-3-yl)-4-oxidanyl-2H-pyrrol-5-one] | > 53 µM |
| C=C1C(c2ccc(Cl)cc2)=[N+](O)C(c2ccccc2)=CN1[O-] [2-(4-chlorophenyl)-3-methyl-4-oxido-6-phenylpyrazin-1-ium 1-oxide] | > 53 µM |
| N#Cc1cc2ccccc2nc1SCc1cccnc1 [2-(Pyridin-3-ylmethylsulfanyl)-quinoline-3-carbonitrile] | > 53 µM |
| CCCCCCc1cc2cc(C(=O)NCc3ccccc3)c(N)oc-2cc1=O [2-amino-6-hexyl-7-oxo-N-(phenylmethyl)-1-benzopyran-3-carboxamide] | 4.2 µM |
| COc1ccc(C2c3ccc(O)cc3OC(=N)C2C#N)cc1C (configuration not stated) [2-amino-7-hydroxy-4-(4-methoxy-3-methylphenyl)-4H-1-benzopyran-3-carbonitrile] | > 53 µM |
| CCCCCCc1cc2cc(C(=O)NC)c(N)oc-2cc1=O [2-azanyl-6-hexyl-N-methyl-7-oxidanylidene-chromene-3-carboxamide] | 3.06 µM |
| CCCC1=Nc2nc(C)nn2C(c2cccnc2)C1C(=O)OCC (configuration not stated) [2-methyl-5-propyl-7-(3-pyridinyl)-1,7-dihydro-[1,2,4]triazolo[1,5-a]pyrimidine-6-carboxylic acid ethyl ester] | > 53 µM |
| Oc1nc(N=NCc2ccc(F)cc2)sc1-c1ccccc1 [2-{N'-[1-(4-Fluoro-phenyl)-meth-(E)-ylidene]-hydrazino}-5-phenyl-thiazol-4-one] | > 53 µM |
| CC1C2=C(CC(C)(C)CC2=O)N=C2CC(C)(C)CC(=O)C21 (configuration not stated) [3,3,6,6,9-pentamethyl-2,4,5,7,9,10-hexahydroacridine-1,8-dione] | > 53 µM |

| Compound | EC50 |
| --- | --- |
| COc1ccccc1C1C(C(=O)c2sc(C)nc2C)C(=O)C(=O)N1CCN1CCOCC1 (configuration not stated) [3-(2,4-dimethyl-1,3-thiazole-5-carbonyl)-4-hydroxy-2-(2-methoxyphenyl)-1-(2-morpholin-4-ylethyl)-2H-pyrrol-5-one] | > 53 µM |
| C=CCOc1ccc(C2C(C(=O)c3ccco3)C(=O)C(=O)N2c2nnc(C)s2)cc1 (configuration not stated) [3-(furan-2-carbonyl)-4-hydroxy-1-(5-methyl-1,3,4-thiadiazol-2-yl)-2-(4-prop-2-enoxyphenyl)-2H-pyrrol-5-one] | > 53 µM |
| Cc1cccc(N2C(=O)C(=O)C(C(=O)c3cccs3)C2c2ccc(C(C)C)cc2)n1 (configuration not stated) [3-Hydroxy-5-(4-isopropyl-phenyl)-1-(6-methyl-pyridin-2-yl)-4-(thiophene-2-carbonyl)-1,5-dihydro-pyrrol-2-one] | 11.3 µM |
| O=C(Cc1nc2ccccc2n(-c2ccccc2)c1=O)c1ccc(F)cc1 [3-[2-(4-fluorophenyl)-2-oxoethylidene]-1-phenyl-3,4-dihydro-2(1H)-quinoxalinone] | 7.18 µM |
| O=c1c(CN=Nc2ccccc2)c(Sc2nnnn2-c2ccccc2)nc2ccccn12 [3-[(phenylhydrazinylidene)methyl]-2-(1-phenyltetrazol-5-yl)sulfanylpyrido[1,2-a]pyrimidin-4-one] | 10.1 µM |
| O=C(c1ccccc1)c1[nH]n(-c2ccccc2)c2c(O)n(-c3ccccc3)c(=O)c1-2 [3-benzoyl-1,5-diphenyl-3a,6a-dihydropyrrolo[3,4-c]pyrazole-4,6-dione] | 14.6 µM |
| CC(=O)C1C(=O)C(=O)N(Cc2ccccc2)C1c1ccc(F)cc1 (configuration not stated) [3-ethanoyl-2-(4-fluorophenyl)-4-oxidanyl-1-(phenylmethyl)-2H-pyrrol-5-one] | > 53 µM |
| Cc1cc(=O)oc2c1ccc1oc(C(N=O)c3ccccc3)c(C)c12 (configuration not stated) [4,9-dimethyl-8-(N-oxidanyl-C-phenyl-carbonimidoyl)furo[2,3-h]chromen-2-one] | > 53 µM |
| CSCSC1=NC(C)=C(C(C)=O)C(c2ccccc2Cl)C1C#N (configuration not stated) [4-(2-chlorophenyl)-5-ethanoyl-6-methyl-2-(methylsulfanylmethylsulfanyl)-1,4-dihydropyridine-3-carbonitrile] | > 53 µM |
| CCOC(=O)C1C(CCc2ccccc2)=NC(=O)NC1c1cccc([N+](=O)[O-])c1 (configuration not stated) [4-(3-nitrophenyl)-2-oxo-6-(2-phenylethyl)-3,4-dihydro-1H-pyrimidine-5-carboxylic acid ethyl ester] | > 53 µM |
| COC(=O)c1ccc(C(=O)C(C#N)c2nc3ccccc3s2)cc1 (configuration not stated) [4-[(2Z)-2-(3H-1,3-benzothiazol-2-ylidene)-2-cyano-1-oxoethyl]benzoic acid methyl ester] | > 53 µM |
| C=CCSc1nnc(C)c(CC=Nc2ccc(Cl)cc2)n1 [4-chloro-N-[(E)-2-(6-methyl-3-prop-2-enylsulfanyl-1,2,4-triazin-5-yl)ethenyl]aniline] | 4.77 µM |
| Cc1ccc2nc(N3C(=O)C(=O)C(C(=O)c4ccc(C)o4)C3c3cccc(O)c3)sc2c1 (configuration not stated) [4-hydroxy-2-(3-hydroxyphenyl)-1-(6-methyl-1,3-benzothiazol-2-yl)-3-(5-methylfuran-2-carbonyl)-2H-pyrrol-5-one] | > 53 µM |
| CC1(C)CC(=O)C(C2C3=C(CC(C)(C)CC3=O)Oc3c(Br)cc(Br)cc32)C(=O)C1 (configuration not stated) [5,7-bis(bromanyl)-9-(4,4-dimethyl-2-oxidanyl-6-oxidanylidene-cyclohexen-1-yl)-3,3-dimethyl-4,9-dihydro-2H-xanthen-1-one] | 10.3 µM |
| O=C1CC(c2ccccc2)C(c2ccccc2)C1=O (configuration not stated) [5-oxidanyl-3,4-diphenyl-cyclopent-2-en-1-one] | > 53 µM |
| O=c1cc(Nc2cc(O)n(-c3ccccc3Cl)c2O)[nH]c(=O)[nH]1 [6-[[1-(2-chlorophenyl)-2,5-dioxopyrrolidin-3-yl]amino]-1H-pyrimidine-2,4-dione] | > 53 µM |
| COc1ccc(-c2ccc(C3c4c(n[nH]c4C)OC(=N)C3C#N)o2)cc1 (configuration not stated) [6-amino-4-[5-(4-methoxyphenyl)-2-furanyl]-3-methyl-2,4-dihydropyrano[2,3-c]pyrazole-5-carbonitrile] | 10.1 µM |
| COc1ccc(C2=Nc3ncnn3C(c3ccco3)C2)cc1 (configuration not stated) [7-(2-furanyl)-5-(4-methoxyphenyl)-1,7-dihydro-[1,2,4]triazolo[1,5-a]pyrimidine] | 4.53 µM |
| Fc1ccc(Br)cc1C1CC(c2ccc(Br)cc2)=Nc2ncnn21 (configuration not stated) [7-(5-bromo-2-fluorophenyl)-5-(4-bromophenyl)-1,7-dihydro-[1,2,4]triazolo[1,5-a]pyrimidine] | > 53 µM |
